Results as given in PMC12355328 (ACS Omega, 2025).
pIC50, pKi: −log10 of the molar value. ≈ marks a conversion by molar mass, not a printed value. Residues, ends and D or L forms follow the SMILES beside them.

Columns and labels:
[1] = Dye-leakage assay, POPG/TOCL; details: 100 μM POPG/TOCL LUV; 298 K
[2] = Circular dichroism spectroscopy; format: physicochemical; details: 50 μM, 100 mM NaF, 10 mM KH2PO4, pH 7.5; averaged of three repeats, 298 K
[3] = Dye-leakage assay, POPE/POPG; details: 100 μM POPE/POPG LUV; 298 K
E. coli BAA 3051 = experiment: MIC assay, ciprofloxacin-resistant E. coli; format: cell-based, Escherichia coli; details: E. coli BAA 3051 (ciprofloxacin-resistant); MHB, 6 h, OD600; concentration at which growth surpassed 10%
E. coli ATCC25922 = experiment: MIC assay, ciprofloxacin-sensitive E. coli; format: cell-based, Escherichia coli; details: MHB, 6 h, OD600, concentration at which growth surpassed 10%
DNA gyrase = DNA gyrase (Escherichia coli, UniProt P0AES4+P0AES6); experiment: DNA gyrase inhibition; format: biochemical
DnaK = DnaK (Escherichia coli, UniProt P0A6Y8); experiment: DnaK binding assay
DnaK, sequence (P0A6Y8 whole entry): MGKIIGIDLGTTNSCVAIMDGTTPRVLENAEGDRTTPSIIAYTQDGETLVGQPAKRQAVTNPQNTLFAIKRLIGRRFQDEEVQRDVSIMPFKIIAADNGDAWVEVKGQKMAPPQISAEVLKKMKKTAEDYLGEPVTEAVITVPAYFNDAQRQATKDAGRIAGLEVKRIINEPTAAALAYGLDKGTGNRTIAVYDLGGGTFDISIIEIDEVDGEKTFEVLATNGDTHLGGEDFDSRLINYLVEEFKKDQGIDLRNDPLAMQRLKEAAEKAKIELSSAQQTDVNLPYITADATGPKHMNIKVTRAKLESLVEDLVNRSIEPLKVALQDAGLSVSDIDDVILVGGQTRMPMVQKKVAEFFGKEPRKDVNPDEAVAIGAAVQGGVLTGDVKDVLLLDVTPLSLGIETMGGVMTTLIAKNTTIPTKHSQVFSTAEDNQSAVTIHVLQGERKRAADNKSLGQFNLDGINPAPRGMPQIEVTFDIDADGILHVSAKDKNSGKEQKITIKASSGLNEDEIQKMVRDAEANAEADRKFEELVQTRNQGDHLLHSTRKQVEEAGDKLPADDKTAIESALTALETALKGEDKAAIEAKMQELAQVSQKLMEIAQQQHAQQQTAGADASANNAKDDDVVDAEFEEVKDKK

| CD: conformation / aggregation in buffer (in words) [2] | Compound | leakage profile (in words) [1] | leakage profile (in words) [3] | MIC (E. coli BAA 3051) [µM] | MIC (E. coli ATCC25922) [µM] | pIC50 (DNA gyrase) | pIC50 (DnaK) | pKi (DnaK) |
| --- | --- | --- | --- | --- | --- | --- | --- | --- |
| not optically active in CD | O=C(O)c1cn(C2CC2)c2cc(N3CCNCC3)c(F)cc2c1=O [ciprofloxacin] | showed a similar trend as in POPC | showed a similar trend to POPC |  |  |  |  |  |
|  | CC[C@H](C)[C@H](NC(=O)[C@H](CCCNC(=N)N)NC(=O)[C@H](CCCNC(=N)N)NC(=O)[C@@H]1CCCN1C(=O)[C@@H]1CCCN1C(=O)[C@H](CCCNC(=N)N)NC(=O)[C@@H]1CCCN1C(=O)[C@H](CCCNC(=N)N)NC(=O)[C@@H]1CCCN1C(=O)[C@H](CC(C)C)NC(=O)[C@H](Cc1ccc(O)cc1)NC(=O)[C@@H]1CCCN1C(=O)[C@@H]1CCCN1C(=O)[C@H](CCCCN)NC(=O)[C@H](CC(=O)O)NC(=O)[C@@H](N)C(C)C)C(=O)N[C@@H](Cc1ccc(O)cc1)C(=O)N[C@@H](CC(N)=O)C(=O)N[C@@H](CCCNC(=N)N)C(N)=O [oncocin] (H-VDKPPYLPRPRPPRRIYNR-NH2) |  |  | 1 (≈ 2.39 µg/mL) | 1 (≈ 2.39 µg/mL) | < 5.00 | 5.81 | 6.41 |
